Laboratory results as given in patent US10654859B2, “Methanesulfonate polymorph of 5-type phosphodiesterase inhibitor and preparation method and applications thereof” (JINAN MEILUWEI BIOTECHNOLOGY CO., LTD., priority 2017, dated 2020).

Experiment: Solubility test (Chinese Pharmacopoeia 2010 criteria)
Type: physicochemical
Conditions: 25° C.±2° C.; for solubility in 95% ethanol (pharmacopoeia term) / solubility in water (pharmacopoeia term): observed within 30 minutes
Description: The regulations on solubility in the guide to the second volume of Chinese Pharmacopoeia 2010 edition are used as criteria.
Weigh samples ground to fine powder (sample B: the compound of formula A; sample C: the methanesulfonate polymorph of the compound of formula A prepared in Embodiment 1), put the samples into a certain volume of solvent at 25° C.±2° C., and vigorously shake the samples for 30 seconds every 5 minutes; observe the dissolution within 30 minutes, wherein if solute particles are not observed, the samples are completely dissolved.

amount of 95% ethanol in which 1 g of sample is dissolved [g]	solubility in 95% ethanol (pharmacopoeia term)	amount of water in which 1 g of sample is dissolved [g]	solubility in water (pharmacopoeia term)	Structure (SMILES)
> 10000	almost insoluble	> 10000	hardly soluble	CCCc1nn(C)c2c(=S)[nH]c(-c3cc(C(=S)N4CCN(C)CC4)ccc3OCC)nc12 [sample B, 5-[2-ethoxy-5-(4-methylpiperazin-1-ylthiocarbonyl)phenyl]-1-methyl-3-n-propyl-1,6-dihydro-pyrazolo[4,3-d]pyrimidin-7-thione]
≤ 90	slightly soluble	≤ 800	slightly soluble	CCCc1nn(C)c2c(=S)[nH]c(-c3cc(C(=S)N4CCN(C)CC4)ccc3OCC)nc12 [sample C, 5-[2-ethoxy-5-(4-methylpiperazin-1-ylthiocarbonyl)phenyl]-1-methyl 3-n-propyl-1,6-dihydro-pyrazolo[4,3-d]pyrimidin-7-thione methanesulfonate polymorph]
